# Measurements from patent US20230085307A1, “PYRIDAZINONE COMPOUND AND HERBICIDE” (NISSAN CHEMICAL CORPORATION, priority 2019, published 2023).
# What was measured:
# [1] = system: late watergrass; experiment: Test Example 1: herbicidal activity, application before weed generation under submerged conditions (Table 16, symbol A); type: in vivo, late watergrass (Echinochloa oryzicola); conditions: 320 g/ha applied herbicide
# Outline: (§1)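 Submerged Wagner pots (alluvial soil, 4 cm water) sown with weed seeds and planted with 2.5-leaf rice seedlings; emulsifiable concentrate diluted in water applied to water surface on sowing day. Held in greenhouse at 25-30 °C; injury scored 0-5 by herbicidal rate after three weeks.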
# [2] = system: Japanese bulrush; experiment: Test Example 1: herbicidal activity, application before weed generation under submerged conditions (Table 16, symbol B); type: in vivo, Japanese bulrush (Schoenoplectus juncoides); conditions: 320 g/ha applied herbicide
# Outline: as §1
# [3] = system: oval-leafed pondweed; experiment: Test Example 1: herbicidal activity, application before weed generation under submerged conditions (Table 16, symbol C); type: in vivo, oval-leafed pondweed (Monochoria vaginalis); conditions: 320 g/ha applied herbicide
# Outline: as §1
# [4] = system: barnyard grass; experiment: Test Example 3: herbicidal effect by foliage application, Wagner pot (Table 18, symbol H); type: in vivo, barnyard grass (Echinochloa crus-galli); conditions: amount of applied herbicide 320 g/ha
# Outline: (§2)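 Plants were sown in alluvial soil held under 0.1–0.5 cm standing water and grown 14 days in a greenhouse at 25–30 °C. An emulsifiable formulation, water-diluted to the set dose, was then sprayed onto the foliage, and effects were scored three weeks later using previously defined criteria.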
# [5] = system: Chinese sprangletop; experiment: Test Example 3: herbicidal effect by foliage application, Wagner pot (Table 18, symbol D); type: in vivo, chinese sprangletop (Leptochloa chinensis); conditions: amount of applied herbicide 320 g/ha
# Outline: as §2
# [6] = system: rice flat sedge; experiment: Test Example 3: herbicidal effect by foliage application, Wagner pot (Table 18, symbol E); type: in vivo, rice flat sedge (Cyperus iria); conditions: amount of applied herbicide 320 g/ha
# Outline: as §2
# [7] = system: southern crabgrass; experiment: Test Example 4: herbicidal effect by soil treatment (Table 19, symbol F); type: in vivo, southern crabgrass (Digitaria ciliaris); conditions: amount of applied herbicide 320 g/ha
# Outline: (§3)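 Pre-emergence style soil spray: seeds under ~1.5 cm sterilized diluvial soil received a uniform coat of emulsion diluted to the predetermined herbicide amount. Greenhouse 25–30° C; readout at week three on previously defined criteria.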
# [8] = system: green foxtail; experiment: Test Example 4: herbicidal effect by soil treatment (Table 19, symbol G); type: in vivo, green foxtail (Setaria viridis); conditions: amount of applied herbicide 320 g/ha
# Outline: as §3
# [9] = system: barnyard grass; experiment: Test Example 4: herbicidal effect by soil treatment (Table 19, symbol H); type: in vivo, barnyard grass (Echinochloa crus-galli); conditions: amount of applied herbicide 320 g/ha
# Outline: as §3
# [10] = system: wild oat; experiment: Test Example 4: herbicidal effect by soil treatment (Table 19, symbol I); type: in vivo, wild oat (Avena fatua); conditions: amount of applied herbicide 320 g/ha
# Outline: as §3
# [11] = system: blackgrass; experiment: Test Example 4: herbicidal effect by soil treatment (Table 19, symbol J); type: in vivo, blackgrass (Alopecurus myosuroides); conditions: amount of applied herbicide 320 g/ha
# Outline: as §3
# [12] = system: Italian ryegrass; experiment: Test Example 4: herbicidal effect by soil treatment (Table 19, symbol K); type: in vivo, Italian ryegrass (Lolium multiflorum); conditions: amount of applied herbicide 320 g/ha
# Outline: as §3
# [13] = system: windgrass; experiment: Test Example 4: herbicidal effect by soil treatment (Table 19, symbol L); type: in vivo, windgrass (Apera spica-venti); conditions: amount of applied herbicide 320 g/ha
# Outline: as §3
# [14] = system: velvetleaf; experiment: Test Example 4: herbicidal effect by soil treatment (Table 19, symbol M); type: in vivo, velvetleaf (Abutilon theophrasti); conditions: amount of applied herbicide 320 g/ha
# Outline: as §3
# [15] = system: redroot pigweed; experiment: Test Example 4: herbicidal effect by soil treatment (Table 19, symbol N); type: in vivo, redroot pigweed (Amaranthus retroflexus); conditions: amount of applied herbicide 320 g/ha
# Outline: as §3
# [16] = system: lambsquarters; experiment: Test Example 4: herbicidal effect by soil treatment (Table 19, symbol O); type: in vivo, lambsquarters (Chenopodium album); conditions: amount of applied herbicide 320 g/ha
# Outline: as §3
# [17] = system: chickweed; experiment: Test Example 4: herbicidal effect by soil treatment (Table 19, symbol P); type: in vivo, common chickweed (Stellaria media); conditions: amount of applied herbicide 320 g/ha
# Outline: as §3
# [18] = system: false cleavers; experiment: Test Example 4: herbicidal effect by soil treatment (Table 19, symbol Q); type: in vivo, false cleavers (Galium spurium); conditions: amount of applied herbicide 320 g/ha
# Outline: as §3
# [19] = system: persian speedwell; experiment: Test Example 4: herbicidal effect by soil treatment (Table 19, symbol R); type: in vivo, Persian speedwell (Veronica persica); conditions: amount of applied herbicide 320 g/ha
# Outline: as §3
# [20] = system: southern crabgrass; experiment: Test Example 5: herbicidal effect by foliage application, plastic box (Table 20, symbol F); type: in vivo, southern crabgrass (Digitaria ciliaris); conditions: foliage application, 320 g/ha, evaluated three weeks after application
# Outline: (§4)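 Plants were sown into sterilized diluvial soil under about 1.5 cm cover and kept in a greenhouse at 25° C. to 30° C. Fourteen days on, foliage received an even spray of the diluted emulsion. Herbicidal or crop effect was judged three weeks afterwards.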
# [21] = system: green foxtail; experiment: Test Example 5: herbicidal effect by foliage application, plastic box (Table 20, symbol G); type: in vivo, green foxtail (Setaria viridis); conditions: foliage application, 320 g/ha, evaluated three weeks after application
# Outline: as §4
# [22] = system: barnyard grass; experiment: Test Example 5: herbicidal effect by foliage application, plastic box (Table 20, symbol H); type: in vivo, barnyard grass (Echinochloa crus-galli); conditions: foliage application, 320 g/ha, evaluated three weeks after application
# Outline: as §4
# [23] = system: wild oat; experiment: Test Example 5: herbicidal effect by foliage application, plastic box (Table 20, symbol I); type: in vivo, wild oat (Avena fatua); conditions: foliage application, 320 g/ha, evaluated three weeks after application
# Outline: as §4
# [24] = system: blackgrass; experiment: Test Example 5: herbicidal effect by foliage application, plastic box (Table 20, symbol J); type: in vivo, blackgrass (Alopecurus myosuroides); conditions: foliage application, 320 g/ha, evaluated three weeks after application
# Outline: as §4
# [25] = system: Italian ryegrass; experiment: Test Example 5: herbicidal effect by foliage application, plastic box (Table 20, symbol K); type: in vivo, Italian ryegrass (Lolium multiflorum); conditions: foliage application, 320 g/ha, evaluated three weeks after application
# Outline: as §4
# [26] = system: windgrass; experiment: Test Example 5: herbicidal effect by foliage application, plastic box (Table 20, symbol L); type: in vivo, windgrass (Apera spica-venti); conditions: foliage application, 320 g/ha, evaluated three weeks after application
# Outline: as §4
# [27] = system: velvetleaf; experiment: Test Example 5: herbicidal effect by foliage application, plastic box (Table 20, symbol M); type: in vivo, velvetleaf (Abutilon theophrasti); conditions: foliage application, 320 g/ha, evaluated three weeks after application
# Outline: as §4
# [28] = system: redroot pigweed; experiment: Test Example 5: herbicidal effect by foliage application, plastic box (Table 20, symbol N); type: in vivo, redroot pigweed (Amaranthus retroflexus); conditions: foliage application, 320 g/ha, evaluated three weeks after application
# Outline: as §4
# [29] = system: lambsquarters; experiment: Test Example 5: herbicidal effect by foliage application, plastic box (Table 20, symbol O); type: in vivo, lambsquarters (Chenopodium album); conditions: foliage application, 320 g/ha, evaluated three weeks after application
# Outline: as §4
# [30] = system: chickweed; experiment: Test Example 5: herbicidal effect by foliage application, plastic box (Table 20, symbol P); type: in vivo, common chickweed (Stellaria media); conditions: foliage application, 320 g/ha, evaluated three weeks after application
# Outline: as §4
# [31] = system: false cleavers; experiment: Test Example 5: herbicidal effect by foliage application, plastic box (Table 20, symbol Q); type: in vivo, false cleavers (Galium spurium); conditions: foliage application, 320 g/ha, evaluated three weeks after application
# Outline: as §4
# [32] = system: persian speedwell; experiment: Test Example 5: herbicidal effect by foliage application, plastic box (Table 20, symbol R); type: in vivo, Persian speedwell (Veronica persica); conditions: foliage application, 320 g/ha, evaluated three weeks after application
# Outline: as §4
structure (smiles),measurement,setting,value
COc1ccc2sc(-c3ccccc3)c(-c3c(O)c(C)nn(C)c3=O)c2c1 [2-164],Herbicidal effect on A: late watergrass (grade 0-5),[1],3 (Herbicidal rate of 40% or more and less than 70%)
same,Herbicidal effect on B: Japanese bulrush (grade 0-5),[2],0 (Herbicidal rate of 5% or less (almost no effect))
same,Herbicidal effect on C: oval-leafed pondweed (grade 0-5),[3],0 (Herbicidal rate of 5% or less (almost no effect))
same,herbicidal effect on H: barnyard grass,[4],2 (Herbicidal rate of 20% or more and less than 40%)
same,herbicidal effect on D: Chinese sprangletop,[5],3 (Herbicidal rate of 40% or more and less than 70%)
same,herbicidal effect on E: rice flat sedge,[6],4 (Herbicidal rate of 70% or more and less than 90%)
same,"F: southern crabgrass, herbicidal effect rating",[7],4 (Herbicidal rate of 70% or more and less than 90%)
same,"G: green foxtail, herbicidal effect rating",[8],5 (Herbicidal rate of 90% or more (almost completely withered))
same,"H: barnyard grass, herbicidal effect rating",[9],2 (Herbicidal rate of 20% or more and less than 40%)
same,"I: wild oat, herbicidal effect rating",[10],1 (Herbicidal rate of 5% or more and less than 20%)
same,"J: blackgrass, herbicidal effect rating",[11],0 (Herbicidal rate of 5% or less (almost no effect))
same,"K: Italian ryegrass, herbicidal effect rating",[12],2 (Herbicidal rate of 20% or more and less than 40%)
same,"L: windgrass, herbicidal effect rating",[13],3 (Herbicidal rate of 40% or more and less than 70%)
same,"M: velvetleaf, herbicidal effect rating",[14],0 (Herbicidal rate of 5% or less (almost no effect))
same,"N: redroot pigweed, herbicidal effect rating",[15],4 (Herbicidal rate of 70% or more and less than 90%)
same,"O: lambsquarters, herbicidal effect rating",[16],4 (Herbicidal rate of 70% or more and less than 90%)
same,"P: chickweed, herbicidal effect rating",[17],5 (Herbicidal rate of 90% or more (almost completely withered))
same,"Q: false cleavers, herbicidal effect rating",[18],2 (Herbicidal rate of 20% or more and less than 40%)
same,"R: persian speedwell, herbicidal effect rating",[19],4 (Herbicidal rate of 70% or more and less than 90%)
same,herbicidal effect on F: southern crabgrass (criteria 0-5),[20],4 (Herbicidal rate of 70% or more and less than 90%)
same,herbicidal effect on G: green foxtail (criteria 0-5),[21],5 (Herbicidal rate of 90% or more (almost completely withered))
same,herbicidal effect on H: barnyard grass (criteria 0-5),[22],1 (Herbicidal rate of 5% or more and less than 20%)
same,herbicidal effect on I: wild oat (criteria 0-5),[23],4 (Herbicidal rate of 70% or more and less than 90%)
same,herbicidal effect on J: blackgrass (criteria 0-5),[24],3 (Herbicidal rate of 40% or more and less than 70%)
same,herbicidal effect on K: Italian ryegrass (criteria 0-5),[25],4 (Herbicidal rate of 70% or more and less than 90%)
same,herbicidal effect on L: windgrass (criteria 0-5),[26],5 (Herbicidal rate of 90% or more (almost completely withered))
same,herbicidal effect on M: velvetleaf (criteria 0-5),[27],3 (Herbicidal rate of 40% or more and less than 70%)
same,herbicidal effect on N: redroot pigweed (criteria 0-5),[28],5 (Herbicidal rate of 90% or more (almost completely withered))
same,herbicidal effect on O: lambsquarters (criteria 0-5),[29],3 (Herbicidal rate of 40% or more and less than 70%)
same,herbicidal effect on P: chickweed (criteria 0-5),[30],5 (Herbicidal rate of 90% or more (almost completely withered))
same,herbicidal effect on Q: false cleavers (criteria 0-5),[31],5 (Herbicidal rate of 90% or more (almost completely withered))
same,herbicidal effect on R: persian speedwell (criteria 0-5),[32],5 (Herbicidal rate of 90% or more (almost completely withered))
